{"source": "ChEMBL document CHEMBL1201862", "about": "“PubChem BioAssay data set” (2004)", "assay_in_all_cases": "inhibition of tumour cell growth, NCI panel, 48 h", "key": {"786-0": {"tested_on": "786-0"}, "ACHN": {"tested_on": "ACHN"}, "EKVX": {"tested_on": "EKVX"}, "HCT-15": {"tested_on": "HCT-15"}, "HOP-62": {"tested_on": "HOP-62"}, "HOP-92": {"tested_on": "HOP-92"}, "Hs-578T": {"tested_on": "Hs-578T"}, "K562": {"tested_on": "K562"}, "MDA-MB-435": {"tested_on": "MDA-MB-435"}, "MOLT-4": {"tested_on": "MOLT-4"}, "NCI-H23": {"tested_on": "NCI-H23"}, "NCI-H460": {"tested_on": "NCI-H460"}, "OVCAR-4": {"tested_on": "OVCAR-4"}, "SF-268": {"tested_on": "SF-268"}, "SK-MEL-2": {"tested_on": "SK-MEL-2"}, "SR": {"tested_on": "SR"}, "U-251": {"tested_on": "U-251"}, "UACC-257": {"tested_on": "UACC-257"}, "UACC-62": {"tested_on": "UACC-62"}, "IGROV-1": {"tested_on": "IGROV-1"}}, "note": "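In this assay, cells in 96-well plates receive the compound at five concentrations for 48 hours. Endpoints are linearly interpolated between the surrounding concentrations. GI50 is the concentration that inhibits growth by half.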 Calls of active or inactive are those of the source. No stated cut-off is given here; in the data, active = GI50 up to about 1.1 µM and inactive = higher.", "data": [{"smiles": "O=C1/C(=C/c2ccc(Oc3ccccc3)cc2)N=C(c2ccccc2)N1c1ccc(S(=O)(=O)Nc2nccs2)cc1", "values": [{"measurement": "GI50", "setting": "786-0", "value": "31.4 µM (inactive)"}, {"measurement": "GI50", "setting": "ACHN", "value": "37.2 µM (inactive)"}, {"measurement": "GI50", "setting": "EKVX", "value": "23.2 µM (inactive)"}, {"measurement": "GI50", "setting": "HCT-15", "value": 8.07, "unit": "µM"}, {"measurement": "GI50", "setting": "HOP-62", "value": "14.9 µM (inactive)"}, {"measurement": "GI50", "setting": "HOP-92", "value": "6.78 µM (inactive)"}, {"measurement": "GI50", "setting": "Hs-578T", "value": "39.4 µM (inactive)"}, {"measurement": "GI50", "setting": "K562", "value": "7.48 µM (inactive)"}, {"measurement": "GI50", "setting": "MDA-MB-435", "value": "2.62 µM (inactive)"}, {"measurement": "GI50", "setting": "MOLT-4", "value": "12.6 µM (inactive)"}, {"measurement": "GI50", "setting": "NCI-H23", "value": "32.7 µM (inactive)"}, {"measurement": "GI50", "setting": "NCI-H460", "value": "25.5 µM (inactive)"}, {"measurement": "GI50", "setting": "OVCAR-4", "value": "38.6 µM (inactive)"}, {"measurement": "GI50", "setting": "SF-268", "value": "36.8 µM (inactive)"}, {"measurement": "GI50", "setting": "SK-MEL-2", "value": "2.63 µM (inactive)"}, {"measurement": "GI50", "setting": "SR", "value": "2.65 µM (inactive)"}, {"measurement": "GI50", "setting": "U-251", "value": "17.1 µM (inactive)"}, {"measurement": "GI50", "setting": "UACC-257", "value": "21.3 µM (inactive)"}, {"measurement": "GI50", "setting": "UACC-62", "value": "19.5 µM (inactive)"}]}, {"smiles": "COC(=O)C1=C(C)NC(C)=C(C(=O)OC)C1c1cccc(NO)c1", "values": [{"measurement": "GI50", "setting": "786-0", "value": "15 µM (inactive)"}, {"measurement": "GI50", "setting": "ACHN", "value": "12.8 µM (inactive)"}, {"measurement": "GI50", "setting": "EKVX", "value": "22.2 µM (inactive)"}, {"measurement": "GI50", "setting": "HCT-15", "value": 19.3, "unit": "µM"}, {"measurement": "GI50", "setting": "HOP-62", "value": "32.3 µM (inactive)"}, {"measurement": "GI50", "setting": "HOP-92", "value": "11.5 µM (inactive)"}, {"measurement": "GI50", "setting": "Hs-578T", "value": "18.4 µM (inactive)"}, {"measurement": "GI50", "setting": "IGROV-1", "value": "16.7 µM (inactive)"}, {"measurement": "GI50", "setting": "K562", "value": "4.76 µM (inactive)"}, {"measurement": "GI50", "setting": "MDA-MB-435", "value": "16.8 µM (inactive)"}, {"measurement": "GI50", "setting": "NCI-H23", "value": "16.3 µM (inactive)"}, {"measurement": "GI50", "setting": "NCI-H460", "value": "15.1 µM (inactive)"}, {"measurement": "GI50", "setting": "OVCAR-4", "value": "13.9 µM (inactive)"}, {"measurement": "GI50", "setting": "SF-268", "value": "16.6 µM (inactive)"}, {"measurement": "GI50", "setting": "SK-MEL-2", "value": "15.2 µM (inactive)"}, {"measurement": "GI50", "setting": "SR", "value": "> 100 µM (inactive)"}, {"measurement": "GI50", "setting": "U-251", "value": "16.1 µM (inactive)"}, {"measurement": "GI50", "setting": "UACC-257", "value": "14.4 µM (inactive)"}, {"measurement": "GI50", "setting": "UACC-62", "value": "17.5 µM (inactive)"}]}, {"smiles": "C/C(=N\\O)c1ccc2cc(Br)c3ccccc3c2c1", "values": [{"measurement": "GI50", "setting": "786-0", "value": "15.1 µM (inactive)"}, {"measurement": "GI50", "setting": "ACHN", "value": "23.6 µM (inactive)"}, {"measurement": "GI50", "setting": "EKVX", "value": "19.1 µM (inactive)"}, {"measurement": "GI50", "setting": "HCT-15", "value": 16, "unit": "µM"}, {"measurement": "GI50", "setting": "HOP-62", "value": "20.2 µM (inactive)"}, {"measurement": "GI50", "setting": "HOP-92", "value": "21 µM (inactive)"}, {"measurement": "GI50", "setting": "Hs-578T", "value": "23.9 µM (inactive)"}, {"measurement": "GI50", "setting": "IGROV-1", "value": "28 µM (inactive)"}, {"measurement": "GI50", "setting": "K562", "value": "46.8 µM (inactive)"}, {"measurement": "GI50", "setting": "MDA-MB-435", "value": "24.2 µM (inactive)"}, {"measurement": "GI50", "setting": "NCI-H23", "value": "20 µM (inactive)"}, {"measurement": "GI50", "setting": "NCI-H460", "value": "16.2 µM (inactive)"}, {"measurement": "GI50", "setting": "OVCAR-4", "value": "61.5 µM (inactive)"}, {"measurement": "GI50", "setting": "SF-268", "value": "26.2 µM (inactive)"}, {"measurement": "GI50", "setting": "SK-MEL-2", "value": "15.8 µM (inactive)"}, {"measurement": "GI50", "setting": "SR", "value": "24.6 µM (inactive)"}, {"measurement": "GI50", "setting": "U-251", "value": "14.6 µM (inactive)"}, {"measurement": "GI50", "setting": "UACC-257", "value": "16.9 µM (inactive)"}, {"measurement": "GI50", "setting": "UACC-62", "value": "17.7 µM (inactive)"}]}, {"smiles": "CN(C)c1ccc(C2CC(=O)CC(c3ccc(N(C)C)cc3)C23C(=O)NC(=S)NC3=O)cc1", "note": "(centres undefined)", "values": [{"measurement": "GI50", "setting": "786-0", "value": "54.6 µM (inactive)"}, {"measurement": "GI50", "setting": "ACHN", "value": "> 100 µM (inactive)"}, {"measurement": "GI50", "setting": "EKVX", "value": "55.5 µM (inactive)"}, {"measurement": "GI50", "setting": "HCT-15", "value": "> 100", "unit": "µM"}, {"measurement": "GI50", "setting": "HOP-62", "value": "18 µM (inactive)"}, {"measurement": "GI50", "setting": "HOP-92", "value": "> 100 µM (inactive)"}, {"measurement": "GI50", "setting": "Hs-578T", "value": "30.2 µM (inactive)"}, {"measurement": "GI50", "setting": "K562", "value": "> 100 µM (inactive)"}, {"measurement": "GI50", "setting": "MDA-MB-435", "value": "> 100 µM (inactive)"}, {"measurement": "GI50", "setting": "MOLT-4", "value": "> 100 µM (inactive)"}, {"measurement": "GI50", "setting": "NCI-H23", "value": "91.2 µM (inactive)"}, {"measurement": "GI50", "setting": "NCI-H460", "value": "> 100 µM (inactive)"}, {"measurement": "GI50", "setting": "OVCAR-4", "value": "> 100 µM (inactive)"}, {"measurement": "GI50", "setting": "SF-268", "value": "33.2 µM (inactive)"}, {"measurement": "GI50", "setting": "SK-MEL-2", "value": "38.8 µM (inactive)"}, {"measurement": "GI50", "setting": "SR", "value": "> 100 µM (inactive)"}, {"measurement": "GI50", "setting": "U-251", "value": "30.6 µM (inactive)"}, {"measurement": "GI50", "setting": "UACC-257", "value": "> 100 µM (inactive)"}, {"measurement": "GI50", "setting": "UACC-62", "value": "> 100 µM (inactive)"}]}, {"smiles": "C/C=C(\\C)C(=O)OC1C(C)=C2C(C1OC(=O)CCCC)C(C)(OC(C)=O)CC(OC(=O)CCCC)C1(O)C2OC(=O)C1(C)O", "note": "(centres undefined)", "values": [{"measurement": "GI50", "setting": "786-0", "value": "0.982 µM (active)"}, {"measurement": "GI50", "setting": "ACHN", "value": "4.8 µM (inactive)"}, {"measurement": "GI50", "setting": "EKVX", "value": "8.22 µM (inactive)"}, {"measurement": "GI50", "setting": "HCT-15", "value": 21, "unit": "µM"}, {"measurement": "GI50", "setting": "HOP-62", "value": "0.431 µM (active)"}, {"measurement": "GI50", "setting": "HOP-92", "value": "0.746 µM (active)"}, {"measurement": "GI50", "setting": "Hs-578T", "value": "0.625 µM (active)"}, {"measurement": "GI50", "setting": "IGROV-1", "value": "6.85 µM (inactive)"}, {"measurement": "GI50", "setting": "K562", "value": "2.2 µM (inactive)"}, {"measurement": "GI50", "setting": "MDA-MB-435", "value": "0.501 µM (active)"}, {"measurement": "GI50", "setting": "MOLT-4", "value": "1.46 µM (inactive)"}, {"measurement": "GI50", "setting": "NCI-H23", "value": "1.14 µM (inactive)"}, {"measurement": "GI50", "setting": "NCI-H460", "value": "0.792 µM (active)"}, {"measurement": "GI50", "setting": "OVCAR-4", "value": "1.86 µM (inactive)"}, {"measurement": "GI50", "setting": "SK-MEL-2", "value": "0.48 µM (active)"}, {"measurement": "GI50", "setting": "SR", "value": "0.951 µM (active)"}, {"measurement": "GI50", "setting": "U-251", "value": "0.605 µM (active)"}, {"measurement": "GI50", "setting": "UACC-257", "value": "9.46 µM (inactive)"}, {"measurement": "GI50", "setting": "UACC-62", "value": "1.57 µM (inactive)"}]}, {"smiles": "CCC1NC(=O)C1NC(=O)OC", "note": "(centres undefined)", "values": [{"measurement": "GI50", "setting": "786-0", "value": "> 100 µM (inactive)"}, {"measurement": "GI50", "setting": "ACHN", "value": "> 100 µM (inactive)"}, {"measurement": "GI50", "setting": "EKVX", "value": "> 100 µM (inactive)"}, {"measurement": "GI50", "setting": "HCT-15", "value": "> 100", "unit": "µM"}, {"measurement": "GI50", "setting": "HOP-62", "value": "> 100 µM (inactive)"}, {"measurement": "GI50", "setting": "HOP-92", "value": "> 100 µM (inactive)"}, {"measurement": "GI50", "setting": "Hs-578T", "value": "> 100 µM (inactive)"}, {"measurement": "GI50", "setting": "IGROV-1", "value": "> 100 µM (inactive)"}, {"measurement": "GI50", "setting": "K562", "value": "> 100 µM (inactive)"}, {"measurement": "GI50", "setting": "MDA-MB-435", "value": "> 100 µM (inactive)"}, {"measurement": "GI50", "setting": "MOLT-4", "value": "> 100 µM (inactive)"}, {"measurement": "GI50", "setting": "NCI-H23", "value": "> 100 µM (inactive)"}, {"measurement": "GI50", "setting": "NCI-H460", "value": "> 100 µM (inactive)"}, {"measurement": "GI50", "setting": "OVCAR-4", "value": "> 100 µM (inactive)"}, {"measurement": "GI50", "setting": "SK-MEL-2", "value": "> 100 µM (inactive)"}, {"measurement": "GI50", "setting": "SR", "value": "> 100 µM (inactive)"}, {"measurement": "GI50", "setting": "U-251", "value": "> 100 µM (inactive)"}, {"measurement": "GI50", "setting": "UACC-257", "value": "> 100 µM (inactive)"}, {"measurement": "GI50", "setting": "UACC-62", "value": "> 100 µM (inactive)"}]}]}
